Values after ≈ are worked out from the molar mass of the structure shown.
Tests used:
[1] = Human Plasma Protein Binding (Test B); type: in vitro ADME; settings: fraction unbound (fu)
Outline: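 Human plasma protein binding run per the published Wernevik et al. (2020) integrated DMPK panel protocol. Values are fraction unbound (fu, % free); repeat runs averaged arithmetically.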

[2] = Human Liver Microsomal Stability (Test C); type: in vitro ADME; settings: human, liver microsomes
Outline: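 Human liver microsome incubation per the Wernevik et al. integrated DMPK panel protocol. Intrinsic clearance reported as CLint in μl/min/mg protein, averaged arithmetically over repeat runs.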

[3] = Rat Hepatocyte Stability (Test E); type: in vitro ADME; settings: rat, hepatocytes, geometric mean if run multiple times
Outline: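 Run per the published AstraZeneca-type rat hepatocyte stability protocol (Wernevik et al. panel). Values are mean intrinsic clearance, Clint in μl/min/10^6 cells; geometric mean used for repeated runs.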

Solubility (Test F) = type: physicochemical; settings: arithmetic mean if run multiple times
Method: The assay was conducted according to the Solubility Assay described in pages 164-167 of Wernevik, J. et al., “A Fully Integrated Assay Panel for Early Drug Metabolism and Pharmacokinetics Profiling”, Assay and Drug Development Technologies, 2020, 18(4), 157-179. Data are reported in Table 36 as solubility ([…]. Where the assay was run multiple times for the same compound, the arithmetic mean is reported.

human RXFP1 = target: T1, human RXFP1 (Homo sapiens, UniProt Q9HBX9); assay: RXFP1 Hu cAMP (Test A); type: cell-based; design: expressed in transfected cells; host or cells: Jump-In T-REx CHO-K1 cells (ThermoFisher), induced with 10 ng/ml doxycycline for 24 h; settings: RXFP1 Hu cAMP; for EC50: read-out: Test A EC50
T1 sequence (Q9HBX9 1-757): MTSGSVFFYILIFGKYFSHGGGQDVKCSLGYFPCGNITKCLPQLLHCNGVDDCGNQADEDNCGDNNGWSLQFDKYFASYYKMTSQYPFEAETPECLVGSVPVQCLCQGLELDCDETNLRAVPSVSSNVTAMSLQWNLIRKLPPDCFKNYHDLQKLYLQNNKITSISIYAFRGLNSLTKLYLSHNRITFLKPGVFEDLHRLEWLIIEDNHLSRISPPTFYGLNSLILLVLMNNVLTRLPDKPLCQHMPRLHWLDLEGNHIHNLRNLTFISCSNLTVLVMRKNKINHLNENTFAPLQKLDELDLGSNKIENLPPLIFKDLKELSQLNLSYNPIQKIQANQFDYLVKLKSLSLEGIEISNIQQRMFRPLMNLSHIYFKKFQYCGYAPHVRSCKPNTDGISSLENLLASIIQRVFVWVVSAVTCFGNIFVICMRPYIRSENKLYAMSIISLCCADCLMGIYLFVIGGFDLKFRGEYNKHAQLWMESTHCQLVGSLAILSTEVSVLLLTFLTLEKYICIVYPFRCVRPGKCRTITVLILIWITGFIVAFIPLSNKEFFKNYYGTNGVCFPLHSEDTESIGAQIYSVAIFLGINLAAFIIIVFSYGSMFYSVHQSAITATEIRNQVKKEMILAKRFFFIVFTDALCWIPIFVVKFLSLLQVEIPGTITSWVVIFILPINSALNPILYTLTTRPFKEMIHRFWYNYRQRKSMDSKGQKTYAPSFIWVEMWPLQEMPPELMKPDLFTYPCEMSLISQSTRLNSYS
Outline: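 Cells: CHO-K1 stably carrying human RXFP1, expressed after 24 h 10 ng/ml doxycycline; 0.5 mM IBMX final, HTRF detection after 2 h at room temperature.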

Test B Human Plasma Protein Binding (% free) [1] [% free] | microsomal CLint [2] [µL/min/mg] | hepatocyte CLint [3] [µL/min/1e6 cells] | solubility (Solubility (Test F)) [µM] | EC50 (human RXFP1) [nM] | Test A Sinf (human RXFP1) [%] | SMILES
17 | 17 | 94 | 810 (≈ 495 µg/mL) | > 9400 | – | COc1cc(C#N)c(O[C@H]2CC[C@@](C)(C(=O)O)CC2)cc1C(=O)N[C@@H]1[C@H]2CC[C@H](C2)[C@@H]1C(=O)NCc1nccc(C(F)F)n1 [Example 114]
6.9 | 44 | 37 | 820 (≈ 464 µg/mL) | – | 120 | COc1cc(C#N)c(O[C@H]2CC[C@@](C)(C(=O)O)CC2)cc1C(=O)N[C@@H]1[C@H]2CC[C@H](C2)[C@@H]1C(=O)NCC1(C(C)C)CC1 [Example 78]
0.93 | 15 | 68 | 700 (≈ 440 µg/mL) | 310 | 127 | COc1cc(F)c(OCCCCC(=O)O)cc1C(=O)N[C@H]1[C@@H](C(=O)Nc2cccc(S(=O)(=O)C(F)(F)F)c2)[C@@H]2C=C[C@H]1C2 (racemic) [Example 451]
0.55 | 13 | 37 | 710 (≈ 442 µg/mL) | 600 | 89 | COc1cc(F)c(-c2cccc(CC(=O)O)c2)cc1C(=O)N[C@@H]1CCC[C@@H]1C(=O)Nc1cccc(S(=O)(=O)C(F)(F)F)c1 [Example 318]
0.67 | 21 | 43 | 120 (≈ 72.8 µg/mL) | 35 | 109 | COc1cc(F)c(O[C@H]2CC[C@@H](C(=O)O)CC2)cc1C(=O)N[C@@H]1[C@H]2CC[C@H](C2)[C@@H]1C(=O)Nc1ccc(C)c(C(F)(F)F)c1 [Example 192, (1S,4s)-4-(2-Fluoro-4-methoxy-5-(((1S,2R,3S,4R)-3-((4-methyl-3-(trifluoromethyl)phenyl)carbamoyl)bicyclo[2.2.1]heptan-2-yl)carbamoyl)phenoxy)cyclohexane-1-carboxylic acid]
0.55 | 39 | 28 | 850 (≈ 533 µg/mL) | – | 110 | COc1cc(F)c(O[C@H]2CC[C@@H](C(=O)O)CC2)cc1C(=O)N[C@@H]1[C@H]2CC[C@H](C2)[C@@H]1C(=O)Nc1ccc(F)c(OC(F)(F)F)c1 [Example 21]
26 | 7.9 | 34 | 1000 (≈ 591 µg/mL) | 8300 | 112 | COc1cc(C#N)c(O[C@H]2CC[C@@](C)(C(=O)O)CC2)cc1C(=O)N[C@@H]1[C@H]2CC[C@H](C2)[C@@H]1C(=O)NCC1CCC(C#N)CC1 (stereo partly shown) [Example 107]
33 | 6.3 | 6.4 | 970 (≈ 502 µg/mL) | > 2700 | 93 | COc1cc(F)c(O[C@H]2CC[C@@](C)(C(=O)O)CC2)cc1C(=O)N[C@@H]1CCC[C@@H]1C(=O)NCC(C)(C)C#N [Example 69]
2.4 | 22 | 27 | 960 (≈ 500 µg/mL) | 550 | 100 | CCC(CC)CNC(=O)[C@H]1CCC[C@H]1NC(=O)c1cc(O[C@H]2CC[C@@](C)(C(=O)O)CC2)c(F)cc1OC [Example 59, (1S,4s)-4-(5-(((1R,2S)-2-((2-Ethylbutyl)carbamoyl)cyclopentyl)carbamoyl)-2-fluoro-4-methoxyphenoxy)-1-methylcyclohexane-1-carboxylic acid]
0.76 | 74 | 36 | 300 (≈ 196 µg/mL) | 120 | 97 | COc1cc(C)c(O[C@H]2CC[C@@H](C(=O)O)CC2)cc1C(=O)N[C@@H]1[C@H]2CC[C@H](C2)[C@@H]1C(=O)Nc1cccc(S(=O)(=O)C(F)(F)F)c1 [Example 465, (1S,4s)-4-(4-Methoxy-2-methyl-5-(((1S,2R,3S,4R)-3-((3-((trifluoromethyl)sulfonyl)phenyl)carbamoyl)bicyclo[2.2.1]heptan-2-yl)carbamoyl)phenoxy)cyclohexane-1-carboxylic acid]
0.16 | 6.3 | 19 | 870 (≈ 550 µg/mL) | 190 | 92 | COc1cc(F)c(-c2ccc(C(=O)O)cc2)cc1C(=O)N[C@H]1[C@@H](C(=O)Nc2cccc(S(=O)(=O)C(F)(F)F)c2)[C@@H]2C=C[C@H]1C2 (racemic) [Example 224, rac-2′-Fluoro-4′-methoxy-5′-(((1R,2R,3S,4S)-3-((3-((trifluoromethyl)sulfonyl)phenyl)carbamoyl)bicyclo[2.2.1]hept-5-en-2-yl)carbamoyl)-[1,1′-biphenyl]-4-carboxylic acid]
0.39 | 32 | 14 | 680 (≈ 434 µg/mL) | > 350 | 93 | COc1cc(F)c(C2=CCC(C(=O)O)CC2)cc1C(=O)N[C@@H]1[C@H]2CC[C@H](C2)[C@@H]1C(=O)Nc1cccc(S(=O)(=O)C(F)(F)F)c1 (mixture of isomers) [Example 267, (RS)-2′-Fluoro-4′-methoxy-5′-(((1S,2R,3S,4R)-3-((3-((trifluoromethyl)sulfonyl)phenyl)carbamoyl)bicyclo[2.2.1]heptan-2-yl)carbamoyl)-2,3,4,5-tetrahydro-[1,1′-biphenyl]-4-carboxylic acid]
0.94 | 13 | 34 | 890 (≈ 534 µg/mL) | – | 108 | COc1cc(F)c(O[C@H]2CC[C@@](C)(C(=O)O)CC2)cc1C(=O)N[C@@H]1COC[C@@H]1C(=O)Nc1ccc(F)c(C(F)(F)F)c1 [Example 52, (1R,4s)-4-(2-fluoro-5-(((3S,4R)-4-((4-fluoro-3-(trifluoromethyl)phenyl)carbamoyl)tetrahydrofuran-3-yl)carbamoyl)-4-methoxyphenoxy)-1-methylcyclohexane-1-carboxylic acid]
0.59 | 7.4 | 18 | 890 (≈ 466 µg/mL) | > 5000 | – | COc1cc(C#N)c(O[C@H]2C[C@@](C)(C(=O)O)C2)cc1C(=O)N[C@@H]1[C@H]2CC[C@H](C2)[C@@H]1C(=O)NCC1(C)CCC1 [Example 148, (1S,3s)-3-(2-cyano-4-methoxy-5-(((1S,2R,3S,4R)-3-(((1-methylcyclobutyl)methyl)carbamoyl)bicyclo[2.2.1]heptan-2-yl)carbamoyl)phenoxy)-1-methylcyclobutane-1-carboxylic acid]

Reference: patent US11667602B2, “Compounds and their use” (AstraZeneca AB, priority 2020, dated 2023)
